Source: patent US20260137703A1, “2-AMINO-PYRIDO[2,3-D]PYRIMIDIN-7(8H)-ONE AND 7-AMINO-1-PYRIMIDO[4,5-D]PYRIMIDIN-2(1 H)-ONE DERIVATIVES AS EGFR INHIBITORS FOR THE TREATMENT OF CANCER” (Cancer Research Technology Limited, priority 2022, published 2026)
Structures can show the parent of a compound that is named as a salt.

Legend:
[1] = target: T1, Phospho-EGFR (Tyr1068) in H1975 cells (Homo sapiens, UniProt P00533, L858R/T790M); experiment: HTRF pEGFR/total EGFR in H1975 cells; type: cell-based; conditions: ratio pEGFR/total EGFR, compound 3 hours
T1 construct: host or cells: H1975
Outline: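 H1975 cells (EGFR L858R/T790M) treated 3 h with compound in 0.1% DMSO, in duplicate, 24 h after plating. Lysates assayed by HTRF for pEGFR (Tyr1068) and total EGFR at 665/620 nm; values are pEGFR/total EGFR ratio as percent of 0 μM control.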

[2] = target: T2, Phospho-EGFR (Tyr1068) in H1975 C797S cells (CRISPR-edited EGFR C797S) (Homo sapiens, UniProt P00533, C797S/L858R/T790M); experiment: HTRF pEGFR/total EGFR in H1975 C797S cells; type: cell-based; conditions: ratio pEGFR/total EGFR, compound 3 hours
T2 construct: host or cells: H1975 C797S (CRISPR-edited)
Outline: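 Adhered H1975 C797S cells got compound for 3 h in duplicate at 0.1% DMSO final, then were lysed 30 min at room temperature. HTRF kits quantified phospho-EGFR (Tyr1068) and total EGFR (665/620 nm); results are pEGFR/total EGFR ratio as percent of 0 μM control.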

[3] = target: T3, Phospho-EGFR (Tyr1068) in A431 cells (Homo sapiens, UniProt P00533); experiment: HTRF pEGFR/total EGFR in A431 cells with EGF stimulation; type: cell-based; conditions: ratio pEGFR/total EGFR, compound 2.5 hours then 100 ng/ml EGF 30 mins
T3 construct: endogenous in cells; host or cells: A431
Outline: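 A431 cells were plated at 20,000 per well, allowed 24 h to adhere, then given compound for 2.5 h (0.1% DMSO final). They were then stimulated with 100 ng/ml EGF for 30 min and lysed. HTRF measured Tyr1068-phospho and total EGFR at 665/620 nm, with pEGFR/total EGFR expressed as % of the 0 μM control.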

[4] = target: CtermHisTag-mEGFR Wild type (Homo sapiens, UniProt P00533); experiment: biochemical
CtermHisTag-mEGFR Wild type, sequence (P00533 whole entry): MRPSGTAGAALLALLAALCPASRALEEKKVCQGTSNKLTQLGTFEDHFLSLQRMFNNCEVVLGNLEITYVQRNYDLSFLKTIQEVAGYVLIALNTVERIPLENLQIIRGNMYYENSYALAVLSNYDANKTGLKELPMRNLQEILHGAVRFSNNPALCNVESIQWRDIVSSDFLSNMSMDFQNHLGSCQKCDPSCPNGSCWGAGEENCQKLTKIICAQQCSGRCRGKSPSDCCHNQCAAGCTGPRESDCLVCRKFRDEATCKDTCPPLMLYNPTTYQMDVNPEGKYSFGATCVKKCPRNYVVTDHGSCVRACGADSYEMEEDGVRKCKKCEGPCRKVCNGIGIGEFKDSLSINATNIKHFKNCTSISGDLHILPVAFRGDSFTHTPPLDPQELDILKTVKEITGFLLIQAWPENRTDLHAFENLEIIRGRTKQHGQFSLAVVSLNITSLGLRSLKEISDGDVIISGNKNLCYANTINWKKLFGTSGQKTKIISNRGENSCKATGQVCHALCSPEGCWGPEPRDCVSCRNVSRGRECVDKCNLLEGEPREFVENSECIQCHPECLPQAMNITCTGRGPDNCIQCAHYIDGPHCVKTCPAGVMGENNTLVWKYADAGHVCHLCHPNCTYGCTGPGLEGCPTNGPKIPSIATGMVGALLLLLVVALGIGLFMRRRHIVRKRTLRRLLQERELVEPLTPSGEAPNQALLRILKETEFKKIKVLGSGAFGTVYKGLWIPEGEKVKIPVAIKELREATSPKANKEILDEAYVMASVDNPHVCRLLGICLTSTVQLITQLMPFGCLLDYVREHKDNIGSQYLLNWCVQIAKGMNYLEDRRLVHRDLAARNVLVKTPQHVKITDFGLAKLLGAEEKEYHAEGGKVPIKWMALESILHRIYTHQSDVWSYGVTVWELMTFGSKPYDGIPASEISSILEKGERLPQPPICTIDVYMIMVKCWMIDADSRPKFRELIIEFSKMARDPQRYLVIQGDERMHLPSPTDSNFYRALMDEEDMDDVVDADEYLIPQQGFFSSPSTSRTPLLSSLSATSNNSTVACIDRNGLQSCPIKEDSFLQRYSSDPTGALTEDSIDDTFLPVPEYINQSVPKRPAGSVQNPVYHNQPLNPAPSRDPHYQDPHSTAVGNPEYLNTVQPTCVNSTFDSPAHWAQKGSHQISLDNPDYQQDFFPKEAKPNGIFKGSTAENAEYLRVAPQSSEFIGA

T2 sequence (P00533 25-1210 T790M/C797S/L858R): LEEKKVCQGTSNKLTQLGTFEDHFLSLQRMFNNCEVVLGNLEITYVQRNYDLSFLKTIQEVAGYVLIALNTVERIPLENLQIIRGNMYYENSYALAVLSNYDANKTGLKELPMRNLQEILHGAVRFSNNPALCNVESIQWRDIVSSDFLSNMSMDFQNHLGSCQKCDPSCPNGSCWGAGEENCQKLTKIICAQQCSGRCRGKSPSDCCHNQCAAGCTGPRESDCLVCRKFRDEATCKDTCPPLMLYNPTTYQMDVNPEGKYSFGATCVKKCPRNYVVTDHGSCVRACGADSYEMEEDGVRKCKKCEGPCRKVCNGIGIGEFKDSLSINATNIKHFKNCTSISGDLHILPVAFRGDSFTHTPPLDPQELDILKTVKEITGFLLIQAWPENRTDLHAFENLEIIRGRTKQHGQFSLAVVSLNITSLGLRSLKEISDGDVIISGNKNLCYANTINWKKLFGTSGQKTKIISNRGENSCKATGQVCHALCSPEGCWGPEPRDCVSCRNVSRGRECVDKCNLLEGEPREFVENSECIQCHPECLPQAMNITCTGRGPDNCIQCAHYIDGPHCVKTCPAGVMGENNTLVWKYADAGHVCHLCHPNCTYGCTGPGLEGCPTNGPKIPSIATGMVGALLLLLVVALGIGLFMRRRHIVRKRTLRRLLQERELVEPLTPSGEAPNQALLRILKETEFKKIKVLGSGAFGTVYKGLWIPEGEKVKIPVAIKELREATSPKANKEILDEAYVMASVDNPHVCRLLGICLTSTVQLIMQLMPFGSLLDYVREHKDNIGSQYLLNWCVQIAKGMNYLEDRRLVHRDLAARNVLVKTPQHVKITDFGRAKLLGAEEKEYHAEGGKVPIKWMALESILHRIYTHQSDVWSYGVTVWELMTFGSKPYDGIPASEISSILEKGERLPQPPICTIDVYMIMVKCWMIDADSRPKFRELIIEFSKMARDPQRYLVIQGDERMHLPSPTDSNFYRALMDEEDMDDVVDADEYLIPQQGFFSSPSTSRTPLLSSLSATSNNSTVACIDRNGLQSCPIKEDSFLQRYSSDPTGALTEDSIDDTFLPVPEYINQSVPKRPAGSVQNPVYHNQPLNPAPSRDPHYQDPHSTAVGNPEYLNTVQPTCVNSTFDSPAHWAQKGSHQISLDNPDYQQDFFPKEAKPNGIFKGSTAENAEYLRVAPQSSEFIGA
T3 sequence (P00533 25-1210): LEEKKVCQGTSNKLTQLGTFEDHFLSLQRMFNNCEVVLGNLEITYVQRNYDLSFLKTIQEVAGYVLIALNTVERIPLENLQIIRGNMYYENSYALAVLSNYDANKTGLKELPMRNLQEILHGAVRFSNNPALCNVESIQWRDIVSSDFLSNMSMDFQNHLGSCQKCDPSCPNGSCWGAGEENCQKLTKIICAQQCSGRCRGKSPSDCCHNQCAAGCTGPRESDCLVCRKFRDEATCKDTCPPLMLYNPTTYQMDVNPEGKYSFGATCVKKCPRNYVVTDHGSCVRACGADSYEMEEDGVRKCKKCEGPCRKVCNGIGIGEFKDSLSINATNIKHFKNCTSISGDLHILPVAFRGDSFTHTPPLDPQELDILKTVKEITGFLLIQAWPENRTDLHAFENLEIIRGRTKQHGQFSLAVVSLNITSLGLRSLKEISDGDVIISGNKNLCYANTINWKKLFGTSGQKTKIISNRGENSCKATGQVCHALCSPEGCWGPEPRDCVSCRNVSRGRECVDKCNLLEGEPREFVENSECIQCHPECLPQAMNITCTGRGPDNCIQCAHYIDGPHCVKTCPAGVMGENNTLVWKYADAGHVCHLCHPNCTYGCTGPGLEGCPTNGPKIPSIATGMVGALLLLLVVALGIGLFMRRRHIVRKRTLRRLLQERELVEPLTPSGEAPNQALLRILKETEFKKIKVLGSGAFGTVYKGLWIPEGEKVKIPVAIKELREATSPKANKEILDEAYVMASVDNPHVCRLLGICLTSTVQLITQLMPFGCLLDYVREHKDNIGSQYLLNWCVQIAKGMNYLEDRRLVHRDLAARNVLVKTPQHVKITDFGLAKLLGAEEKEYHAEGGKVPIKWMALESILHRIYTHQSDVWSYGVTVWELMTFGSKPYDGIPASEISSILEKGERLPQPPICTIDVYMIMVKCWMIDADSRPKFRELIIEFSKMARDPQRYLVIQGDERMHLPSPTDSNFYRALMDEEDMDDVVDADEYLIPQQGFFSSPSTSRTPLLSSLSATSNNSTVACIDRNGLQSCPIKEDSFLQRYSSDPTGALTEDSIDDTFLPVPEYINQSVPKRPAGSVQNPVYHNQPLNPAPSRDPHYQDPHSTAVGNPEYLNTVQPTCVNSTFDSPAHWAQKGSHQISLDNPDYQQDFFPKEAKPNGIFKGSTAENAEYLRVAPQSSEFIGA
T1 sequence (P00533 25-1210 T790M/L858R): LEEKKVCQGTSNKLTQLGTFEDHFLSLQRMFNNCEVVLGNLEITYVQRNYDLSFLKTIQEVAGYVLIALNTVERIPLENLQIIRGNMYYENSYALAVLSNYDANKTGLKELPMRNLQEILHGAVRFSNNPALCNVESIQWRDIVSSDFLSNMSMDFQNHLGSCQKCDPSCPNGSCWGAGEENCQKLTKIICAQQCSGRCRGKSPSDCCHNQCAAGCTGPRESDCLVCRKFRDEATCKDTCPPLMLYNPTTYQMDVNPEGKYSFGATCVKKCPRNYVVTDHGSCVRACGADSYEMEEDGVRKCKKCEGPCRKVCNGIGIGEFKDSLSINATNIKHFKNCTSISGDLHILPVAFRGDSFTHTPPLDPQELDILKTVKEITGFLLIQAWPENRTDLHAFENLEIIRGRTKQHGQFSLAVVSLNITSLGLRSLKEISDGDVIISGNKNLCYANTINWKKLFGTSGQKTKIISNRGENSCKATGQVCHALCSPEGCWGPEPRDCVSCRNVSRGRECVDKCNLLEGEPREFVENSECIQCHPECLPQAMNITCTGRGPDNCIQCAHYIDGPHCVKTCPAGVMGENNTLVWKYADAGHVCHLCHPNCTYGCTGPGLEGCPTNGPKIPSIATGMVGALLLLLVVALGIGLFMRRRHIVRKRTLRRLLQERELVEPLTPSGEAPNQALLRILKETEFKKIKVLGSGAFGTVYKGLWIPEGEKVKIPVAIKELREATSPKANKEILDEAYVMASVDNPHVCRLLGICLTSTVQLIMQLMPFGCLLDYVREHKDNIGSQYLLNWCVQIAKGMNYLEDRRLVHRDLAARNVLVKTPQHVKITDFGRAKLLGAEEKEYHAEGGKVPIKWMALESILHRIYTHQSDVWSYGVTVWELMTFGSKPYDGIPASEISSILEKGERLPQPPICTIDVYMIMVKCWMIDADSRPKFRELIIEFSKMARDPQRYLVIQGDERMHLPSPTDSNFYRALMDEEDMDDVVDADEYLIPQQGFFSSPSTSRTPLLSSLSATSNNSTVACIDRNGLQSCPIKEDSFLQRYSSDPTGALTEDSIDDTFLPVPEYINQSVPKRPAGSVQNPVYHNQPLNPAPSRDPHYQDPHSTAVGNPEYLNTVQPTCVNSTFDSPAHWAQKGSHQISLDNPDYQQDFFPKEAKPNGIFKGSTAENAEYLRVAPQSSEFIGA

Row | SMILES | IC50 [1] [nM] | IC50 [2] [nM] | IC50 [3] [nM] | IC50 [4] [nM]
1 | C#Cc1cc(=O)n(C)c2nc(Nc3ccc(N4CCN(C)CC4)c(OCCCC4CCCC4)c3)ncc12 [Example 212, 2-((3-(3-Cyclopentylpropoxy)-4-(4-methylpiperazin-1-yl)phenyl)amino)-5-ethynyl-8-methylpyrido[2,3-d]pyrimidin-7(8H)-one] | < 500 | < 500 | > 3000 | < 1000
2 | C#Cc1cc(=O)n(C)c2nc(Nc3ccc(N4CCN(C)CC4)c(OCCC4CCCC4)c3)ncc12 [Example 209, 2-((3-(2-Cyclopentylethoxy)-4-(4-methylpiperazin-1-yl)phenyl)amino)-5-ethynyl-8-methylpyrido[2,3-d]pyrimidin-7(8H)-one] | < 500 | < 500 | < 500 | < 1000
3 | C#Cc1cc(=O)n([C@H]2CC[C@H](NC(=O)c3ccnnc3)CC2)c2nc(Nc3ccc(N4CCN(C)CC4)cc3)ncc12 [Example 89, N-[(1r,4r)-4-(5-Ethynyl-2-{[4-(4-methylpiperazin-1-yl)phenyl]amino}-7-oxopyrido[2,3-d]pyrimidin-8-yl)cyclohexyl]pyridazine-4-carboxamide] | < 500 | < 500 | > 3000 | < 1000
4 | C#Cc1cc(=O)n([C@H]2CC[C@@H](NC(=O)C(C)C)CC2)c2nc(Nc3ccc(N4CCN(C)CC4)cc3)ncc12 [Example 82, 2-Methyl-N-[(1s,4s)-4-(5-ethynyl-2-{[4-(4-methylpiperazin-1-yl)phenyl]amino}-7-oxopyrido[2,3-d]pyrimidin-8-yl)cyclohexyl]propanamide] | < 500 | < 500 | > 3000 | < 1000
5 | C#Cc1cc(=O)n(-c2ccccc2)c2nc(Nc3ccc(N(C)CCN(C)C)c(C)c3)ncc12 [Example 32, 2-[(4-{[2-(Dimethylamino)ethyl](methyl)amino}-3-methylphenyl)amino]-5-ethynyl-8-phenylpyrido[2,3-d]pyrimidin-7-one] | < 500 | < 500 | > 3000 | < 1000
6 | C#Cc1c(C)c(=O)n2c3nc(ncc13)Nc1cccc(c1)OCCCC2 [Example 191, 1^5-ethynyl-1^6-methyl-1^7,1^8-dihydro-4-oxa-2-aza-1(2,8)-pyrido[2,3-d]pyrimidina-3(1,3)-benzenacyclooctaphan-1^7-one] | > 3000 | > 3000 | > 3000 | 1000 to 10000
7 | C#Cc1c(C)c(=O)n(Cc2ccncc2)c2nc(Nc3ccc(N4CCN(C)CC4)cc3)ncc12 [Example 179, 5-Ethynyl-6-methyl-2-{[4-(4-methylpiperazin-1-yl)phenyl]amino}-8-(pyridin-4-ylmethyl)pyrido[2,3-d]pyrimidin-7-one] | 1000 to 3000 | 1000 to 3000 | > 3000 | 1000 to 10000
8 | C#Cc1cc(=O)[nH]c2nc(Nc3ccccc3OC)ncc12 [Example 120, 5-ethynyl-2-((2-methoxyphenyl)amino)pyrido[2,3-d]pyrimidin-7(8H)-one] | > 3000 | > 3000 | > 3000 | 1000 to 10000
9 | C#Cc1cc(=O)n(-c2ccccc2)c2nc(Nc3ccc(N4CCNCC4)cc3)ncc12 [Example 14, 5-Ethynyl-8-phenyl-2-{[4-(piperazin-1-yl)phenyl]amino}pyrido[2,3-d]pyrimidin-7-one] | < 500 | < 500 | > 3000 | < 1000
10 | C#Cc1cc(=O)n(-c2ccccc2)c2nc(Nc3ccc(N4CCCNCC4)cc3)ncc12 [Example 20, 2-{[4-(1,4-Diazepan-1-yl)phenyl]amino}-5-ethynyl-8-phenylpyrido[2,3-d]pyrimidin-7-one] | < 500 | < 500 | 1000 to 3000 | < 1000
11 | C#Cc1c(-c2cc(OC)ccc2Cl)c(=O)n(C)c2nc(Nc3ccc(N(C)CCN(C)C)cc3)ncc12 [Example 136, 6-(2-chloro-5-methoxyphenyl)-2-[(4-{[2-(dimethylamino)ethyl](methyl)amino}phenyl)amino]-5-ethynyl-8-methylpyrido[2,3-d]pyrimidin-7-one] | < 500 | 500 to 1000 | 1000 to 3000 | < 1000
12 | C#Cc1cc(=O)n2c3nc(ncc13)Nc1ccc(N3CCN(C)CC3)c(c1)CNC(=O)CCC2 [Example 237, 1^5-Ethynyl-3^4-(4-methylpiperazin-1-yl)-1^7,1^8-dihydro-2,5-diaza-1(2,8)-pyrido[2,3-d]pyrimidina-3(1,3)-benzenacyclononaphane-1^7,6-dione] | < 500 | 500 to 1000 | > 3000 | < 1000
13 | C#Cc1cc(=O)n([C@H]2CC[C@@H](NC(=O)CCC(=O)OC)CC2)c2nc(Nc3ccc(N4CCN(C)CC4)cc3)ncc12 [Example 92, Methyl 4-(((1s,4s)-4-(5-ethynyl-2-((4-(4-methylpiperazin-1-yl)phenyl)amino)-7-oxopyrido[2,3-d]pyrimidin-8(7H)-yl)cyclohexyl)amino)-4-oxobutanoate] | > 3000 | > 3000 | > 3000 | 1000 to 10000
14 | C#Cc1c(C)c(=O)n(Cc2cccnc2)c2nc(Nc3ccc(N4CCN(C)CC4)cc3)ncc12 [Example 115, 5-ethynyl-6-methyl-2-{[4-(4-methylpiperazin-1-yl)phenyl]amino}-8-(pyridin-3-ylmethyl)pyrido[2,3-d]pyrimidin-7-one] | 500 to 1000 | 1000 to 3000 | 1000 to 3000 | < 1000
15 | C#Cc1cc(=O)n([C@@H]2CCCN(C(=O)CC)C2)c2nc(Nc3ccc(N(C)CCN(C)C)cc3)ncc12 [Example 77, (R)-2-((4-((2-(Dimethylamino)ethyl)(methyl)amino)phenyl)amino)-5-ethynyl-8-(1-propionylpiperidin-3-yl)pyrido[2,3-d]pyrimidin-7(8H)-one trifluoroacetic acid salt] | > 3000 | > 3000 | > 3000 | > 10000
16 | C#Cc1cc(=O)n2c3nc(ncc13)Nc1ccc(N3CCN(CCOC)CC3)c(c1)NC(=O)CCC2 [Example 236, 1^5-Ethynyl-3^4-(4-(2-methoxyethyl)piperazin-1-yl)-1^7,1^8-dihydro-2,4-diaza-1(2,8)-pyrido[2,3-d]pyrimidina-3(1,3)-benzenacyclooctaphane-1^7,5-dione] | < 500 | < 500 | 1000 to 3000 | < 1000
17 | C#Cc1c(-c2ccccc2Cl)c(=O)n(C)c2nc(Nc3cccc(OC)c3)ncc12 [Example 131, 6-(2-chlorophenyl)-5-ethynyl-2-[(3-methoxyphenyl)amino]-8-methylpyrido[2,3-]pyrimidin-7-one] | 1000 to 3000 | > 3000 | > 3000 | 1000 to 10000
18 | C#Cc1c(-c2c(Cl)cccc2Cl)c(=O)n(C)c2nc(Nc3ccc(N(C)CCN(C)C)cc3)ncc12 [Example 134, 6-(2,6-dichlorophenyl)-2-[(4-{[2-(dimethylamino)ethyl](methyl)amino}phenyl)amino]-5-ethynyl-8-methylpyrido[2,3-d]pyrimidin-7-one] | > 3000 | > 3000 | > 3000 | > 10000
19 | C#Cc1cc(=O)n([C@H]2CC[C@@H](N(C)C(=O)CN(C)C)CC2)c2nc(Nc3ccccc3OC)ncc12 [Example 101, 2-(Dimethylamino)-N-methyl-N-[(1s,4s)-4-{5-ethynyl-2-[(2-methoxyphenyl)amino]-7-oxopyrido[2,3-d]pyrimidin-8-yl}cyclohexyl]acetamide] | > 3000 | > 3000 | > 3000 | > 10000
20 | C#Cc1cc(=O)n(-c2ccccc2)c2nc(Nc3cnn(C)c3)ncc12 [Example 25, 5-Ethynyl-2-[(1-methylpyrazol-4-yl)amino]-8-phenylpyrido[2,3-d]pyrimidin-7-one] | 1000 to 3000 | 1000 to 3000 | > 3000 | < 1000
21 | C#Cc1cc(=O)n2c3nc(ncc13)Nc1ccc(N3CCN(C)CC3)c(c1)CN(C)CCC2 [Example 226, 1^5-Ethynyl-5-methyl-3^4-(4-methylpiperazin-1-yl)-1^7,1^8-dihydro-2,5-diaza-1(2,8)-pyrido[2,3-d]pyrimidina-3(1,3)-benzenacyclooctaphan-1^7-one] | < 500 | < 500 | > 3000 | < 1000
22 | C#Cc1cc(=O)n(-c2ccccc2)c2nc(Nc3ccc(C4CCNCC4)cc3)ncc12 [Example 22, 5-Ethynyl-8-phenyl-2-{[4-(piperidin-4-yl)phenyl]amino}pyrido[2,3-d]pyrimidin-7-one] | < 500 | < 500 | > 3000 | < 1000
23 | C#Cc1cc(=O)n(-c2ccccc2)c2nc(Nc3ccc(N4CCC(N5CC(CO)C5)CC4)cc3)ncc12 [Example 28] | < 500 | < 500 | 1000 to 3000 | < 1000
